ChEMBL document CHEMBL1201862, “PubChem BioAssay data set” (2004)
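Briefly, cells in 96-well plates were exposed to five compound concentrations for 48 h, and endpoints were estimated by linear interpolation. The concentration for 50% growth inhibition is given as GI50.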 The source made the active and inactive calls. Rule as the data show it: active = GI50 up to about 1.1 µM and inactive = higher.

Columns and labels:
Assay in all cases: NCI-60 cell line screen, 48 h
[1] = system: A498
[2] = system: A549
[3] = system: CAKI-1
[4] = system: HCC 2998
[5] = system: HOP-18
[6] = system: LOX IMVI
[7] = system: MOLT-4
[8] = system: Malme-3M
[9] = system: NCI-H522
[10] = system: OVCAR-4
[11] = system: OVCAR-8
[12] = system: SF-295
[13] = system: SK-MEL-28
[14] = system: SK-MEL-5
[15] = system: SK-OV-3
[16] = system: SNB-19
[17] = system: UACC-257
[18] = system: UACC-62
[19] = system: KM12
[20] = system: NCI/ADR-RES

Structure (SMILES)	GI50 [1]	GI50 [2]	GI50 [3]	GI50 [4]	GI50 [5]	GI50 [6]	GI50 [7]	GI50 [8]	GI50 [9]	GI50 [10]	GI50 [11]	GI50 [12]	GI50 [13]	GI50 [14]	GI50 [15]	GI50 [16]	GI50 [17]	GI50 [18]	GI50 [19]	GI50 [20]
CCCCCCCCCCNC(=S)OC	46.2 µM (inactive)	34.3 µM (inactive)	28.5 µM (inactive)	43.6 µM (inactive)	> 100 µM (inactive)	15.8 µM (inactive)	5.83 µM (inactive)	69.8 µM (inactive)	20.2 µM (inactive)	47.2 µM (inactive)	48.2 µM (inactive)	55.5 µM (inactive)	51.2 µM (inactive)	23 µM (inactive)	> 100 µM (inactive)	59.2 µM (inactive)	23.8 µM (inactive)	25 µM (inactive)		
Cc1ccc(C)c(N2C(=O)C(=O)C(c3nc4ccccc4o3)/C(=N\NC(=O)c3ccccc3O)C2=O)c1 (stereo not given)	13 µM (inactive)	13.6 µM (inactive)	3.75 µM (inactive)	67.3 µM (inactive)	20.9 µM (inactive)	32.4 µM (inactive)	12.8 µM (inactive)	66.1 µM (inactive)	17.5 µM (inactive)	11.7 µM (inactive)	19.8 µM (inactive)	56.2 µM (inactive)	> 100 µM (inactive)	38.5 µM (inactive)	87.1 µM (inactive)	12.3 µM (inactive)	23 µM (inactive)	5.68 µM (inactive)		
Clc1ccc(C[P+](c2ccccc2)(c2ccccc2)c2ccccc2)cc1Cl	12.6 µM (inactive)	4.49 µM (inactive)	2.57 µM (inactive)	2.46 µM (inactive)	2.1 µM (inactive)	1.55 µM (inactive)		2.53 µM (inactive)	1.89 µM (inactive)	4.4 µM (inactive)	3.05 µM (inactive)	10.3 µM (inactive)	3.67 µM (inactive)	1.42 µM (inactive)	7.35 µM (inactive)	3.21 µM (inactive)	2.14 µM (inactive)	1.49 µM (inactive)	2.69 µM (inactive)	
CCN(CC)CCCNC(=O)C1COc2cc(-c3cc(=O)c4ccccc4o3)ccc2O1 (stereo not given)	48.2 µM (inactive)	44.1 µM (inactive)	> 100 µM (inactive)	42.2 µM (inactive)	> 100 µM (inactive)	23.6 µM (inactive)	33.4 µM (inactive)	20.4 µM (inactive)	33.3 µM (inactive)	72.6 µM (inactive)	53.7 µM (inactive)	96.8 µM (inactive)	20.6 µM (inactive)	19.7 µM (inactive)	> 100 µM (inactive)	> 100 µM (inactive)	21.6 µM (inactive)	45.9 µM (inactive)		
O=C(O)Cc1cc(=O)[nH]c2c1/C(=N/O)CCC2		> 100 µM (inactive)		> 100 µM (inactive)	> 100 µM (inactive)		> 100 µM (inactive)	> 100 µM (inactive)	> 100 µM (inactive)		> 100 µM (inactive)	> 100 µM (inactive)	> 100 µM (inactive)	> 100 µM (inactive)	> 100 µM (inactive)	> 100 µM (inactive)	> 100 µM (inactive)		> 100 µM (inactive)	
CCCCc1c2c(nc3c1CCCC3=O)C(=O)CCC2	> 100 µM (inactive)	> 100 µM (inactive)		> 100 µM (inactive)	> 100 µM (inactive)	> 100 µM (inactive)	> 100 µM (inactive)	> 100 µM (inactive)	> 100 µM (inactive)	> 100 µM (inactive)	> 100 µM (inactive)	> 100 µM (inactive)	> 100 µM (inactive)	> 100 µM (inactive)	> 100 µM (inactive)	> 100 µM (inactive)	> 100 µM (inactive)	> 100 µM (inactive)	> 100 µM (inactive)	
Cc1ccc([N+](=O)[O-])cc1NC(=O)C(=O)Cc1occc(=O)c1O	> 100 µM (inactive)	> 100 µM (inactive)	> 100 µM (inactive)	> 100 µM (inactive)	> 100 µM (inactive)	> 100 µM (inactive)			> 100 µM (inactive)		> 100 µM (inactive)	> 100 µM (inactive)	> 100 µM (inactive)	> 100 µM (inactive)	> 100 µM (inactive)	> 100 µM (inactive)		> 100 µM (inactive)	> 100 µM (inactive)	
CCOC(=O)c1sc(Nc2cc(Cl)ccc2Cl)nc1C	> 100 µM (inactive)	72.3 µM (inactive)		> 100 µM (inactive)	> 100 µM (inactive)	> 100 µM (inactive)	29.6 µM (inactive)	> 100 µM (inactive)	> 100 µM (inactive)	> 100 µM (inactive)	96.4 µM (inactive)	64 µM (inactive)	> 100 µM (inactive)			> 100 µM (inactive)	81.8 µM (inactive)		> 100 µM (inactive)	
COc1ccc(-c2onc(-c3ccc([N+](=O)[O-])cc3)c2C2=NCCCN2)cc1		> 100 µM (inactive)	> 100 µM (inactive)	> 100 µM (inactive)	3.4 µM (inactive)	51.9 µM (inactive)	76.2 µM (inactive)	> 100 µM (inactive)	51.3 µM (inactive)	> 100 µM (inactive)	81.1 µM (inactive)	53.2 µM (inactive)	38.4 µM (inactive)	30.2 µM (inactive)		> 100 µM (inactive)	87.7 µM (inactive)	> 100 µM (inactive)	> 100 µM (inactive)	
CC1=C(C(=O)NCc2ccccc2)C(c2ccc(C3C(C(=O)NCc4ccccc4)=C(C)NC(C)=C3C(=O)NCc3ccccc3)cc2)C(C(=O)NCc2ccccc2)=C(C)N1	17.7 µM (inactive)	24.3 µM (inactive)	14 µM (inactive)	17.1 µM (inactive)	37.5 µM (inactive)		5.75 µM (inactive)	14.4 µM (inactive)	3.41 µM (inactive)	15.2 µM (inactive)	7.03 µM (inactive)	17.9 µM (inactive)	11.5 µM (inactive)	16.1 µM (inactive)		15.6 µM (inactive)	15 µM (inactive)	7.91 µM (inactive)	11.4 µM (inactive)	
CSc1ccc(/C=C2\N=C(c3ccccc3)N(/N=C3\C(=O)Nc4ccccc43)C2=O)cc1	> 100 µM (inactive)	> 100 µM (inactive)	> 100 µM (inactive)	> 100 µM (inactive)		> 100 µM (inactive)	29.7 µM (inactive)	> 100 µM (inactive)	> 100 µM (inactive)	> 100 µM (inactive)	88.3 µM (inactive)	> 100 µM (inactive)	> 100 µM (inactive)	> 100 µM (inactive)	> 100 µM (inactive)	> 100 µM (inactive)	> 100 µM (inactive)	> 100 µM (inactive)	> 100 µM (inactive)	> 100 µM (inactive)
Cc1cc2nc3c(=O)n(C)c(=O)nc-3n(-c3ccc(Cl)cc3)c2cc1C	31.1 µM (inactive)	3.52 µM (inactive)	16.4 µM (inactive)	3.95 µM (inactive)	6.87 µM (inactive)		11.2 µM (inactive)	10 µM (inactive)	> 10 µM (inactive)	5.16 µM (inactive)	13.1 µM (inactive)	12.2 µM (inactive)	15.2 µM (inactive)	1.72 µM (inactive)	25.6 µM (inactive)	5.78 µM (inactive)	6.75 µM (inactive)	2.91 µM (inactive)	16 µM (inactive)	
CC(Oc1ccc(OCC2CCCCC2)cc1)C(=O)N(CCO)CCO (stereo not given)	> 100 µM (inactive)	> 100 µM (inactive)		32.9 µM (inactive)	> 100 µM (inactive)	> 100 µM (inactive)	> 100 µM (inactive)	> 100 µM (inactive)	> 100 µM (inactive)	> 100 µM (inactive)	> 100 µM (inactive)	> 100 µM (inactive)	> 100 µM (inactive)	> 100 µM (inactive)	> 100 µM (inactive)	> 100 µM (inactive)	> 100 µM (inactive)	> 100 µM (inactive)	> 100 µM (inactive)	
CCC(=O)NCCc1c2c3c(ccnc3c3ncsc13)-c1ccccc1N2 [KUANONIAMINE C]	0.989 µM (active)	0.771 µM (active)	5.74 µM (inactive)	0.692 µM (active)		1.05 µM (active)	1.4 µM (inactive)	2.62 µM (inactive)	2.62 µM (inactive)	30.4 µM (inactive)	3.28 µM (inactive)	1.12 µM (active)	2.56 µM (inactive)	2.72 µM (inactive)	12.2 µM (inactive)	4.36 µM (inactive)	6 µM (inactive)	1.63 µM (inactive)	2.33 µM (inactive)	4.99 µM (inactive)
Nc1ccn(C2OC(CO)C(O)C2O)c(=O)n1 (stereo not given)	18 µM (inactive)	0.14 µM (active)	1.04 µM (active)	107 µM (inactive)		0.219 µM (active)	0.0582 µM (active)	13.8 µM (inactive)	22.6 µM (inactive)	457 µM (inactive)	0.818 µM (active)	12.8 µM (inactive)	68.2 µM (inactive)	19.8 µM (inactive)	198 µM (inactive)	7.98 µM (inactive)	120 µM (inactive)	1.08 µM (active)	468 µM (inactive)	1.16 µM (inactive)
Nc1nc2c(ncn2Cc2ccccc2CO)c(=O)[nH]1	> 100 µM (inactive)	> 100 µM (inactive)	> 100 µM (inactive)	> 100 µM (inactive)		> 100 µM (inactive)	> 100 µM (inactive)	> 100 µM (inactive)	> 100 µM (inactive)	> 100 µM (inactive)	> 100 µM (inactive)	> 100 µM (inactive)	> 100 µM (inactive)	> 100 µM (inactive)	> 100 µM (inactive)	> 100 µM (inactive)	> 100 µM (inactive)	> 100 µM (inactive)	> 100 µM (inactive)	> 100 µM (inactive)
